The values that follow come from patent US20240261375A1, “PHARMACEUTICAL COMPOSITION FOR TREATING OR PREVENTING DISORDER ASSOCIATED WITH ADMINISTRATION OF ANTICANCER AGENT” (LTT BIO-PHARMA CO., LTD., priority 2021, published 2024).

Read-outs that look alike come from different tables or passages of the source.

The subject of data set [1] is RAW cells. In words: Toxicity of anticancer agents against RAW cells (CellTiter-Glo viable cell count). The format is cell-based. The procedure:
RAW cells were seeded on a 96-well plate at 20 000 cells/well (D-MEM high glucose medium containing 10% inactivated FBS). […] The number of viable cells was counted 24 hours later by measuring chemical luminescence by using CellTiter-Glo™ 2.0 Cell Viability Assay (Promega) and a plate reader (Tecan, Infinite M Plex). Cells for four wells were analyzed for each group.
(ATP-based viability assays read luminescence as a measure of living cells.)

Data set [2] concerns RAW cells. The data set can be described thus: Active oxygen production in RAW cells (MitoSOX Red). The format is cell-based. The method, then:
RAW cells were seeded on a 96-well plate for fluorescence at 20 000 cells/well (D-MEM high glucose medium containing 10% inactivated FBS). […] Sixteen hours later, cells were treated with an HBSS solution containing dissolved MitoSOX™ Red Mitochondrial Superoxide Indicator (Invitrogen™) for 30 minutes, and the medium was replaced with D-MEM high glucose medium containing 1% inactivated FBS. Active oxygen production in mitochondria was determined by measuring fluorescence (Ex 510 nm, Em 580 nm) by using a plate reader (Infinite M Plex, Tecan). Cells for four wells were analyzed for each group.

In data set [3] the test system is Large intestine cancer cells (colo320, HCT116). In words: Proliferation of large intestine cancer cells (CCK-8). To be noted: OXA alone, 3-fold dilutions from 100 μM, 72 hours; FIG. 6. The format is cell-based. The procedure:
Large intestine cancer cells (colo320, HCT116) were added to RPM1640 medium (Thermo Fisher Scientific Inc.) containing 10% fetal bovine serum and 100 units/mL penicillin-streptomycin (Gibco BRL) and cultured at 37° C. in a 5% CO2 incubator.
Cells were seeded on a 96-well plate at 10 000 cells/well and treated with a test solution 24 hours later. A test solution containing OXA alone was diluted 3-fold from 100 μM (10 levels) and added to a 96-well plate. A test solution containing OXA+PC-SOD was obtained by adding the same concentrations of OXA to PC-SOD (50 μg/mL) (n=3 per group). After cells were cultured for 72 hours, a CCK-8 solution was added in a volume of 1/10 of the solution in each well, and the mixture was measured at 490 nm of absorbance (Tecan, Tecan Japan). Data were expressed with mean±standard error (SEM). It should be noted that experiment conditions were allowed to be changed as required.

Data set [4] has as its system liver of OXA-treated rats. The data set can be described thus: Pathological assessment of liver disorder caused by oxaliplatin (HE staining). The format is in vivo, rat. The following applies: PC-SOD 1 mg/kg, mangafodipir dose not given, FIG. 5. From the text:
A liver tissue was collected and fixed with 10% neutral buffered formalin to prepare a paraffin block by using Histos 5 (Milestone) and an embedding center (EG1160, Leica). The sample block was thinly sliced at a thickness of 3 μm by using a microtome (MR2245, Leica) to prepare a slide. The prepared slide was stained by HE staining, enclosed, and observed at 200 and 400-fold magnifications by using the optical microscope function of All-in-One Fluorescence Microscope (BZ-X800, Keyence Corporation). Observation and assessment were performed by observing the whole section. Two to four representative tissue images were randomly taken up, and alteration in the tissue structure, such as inflammation and necrosis, was observed and assessed (Scale bar=200 μm).

The test system of data set [5] is PC12 cells differentiated by NGF. In words: Neurite retraction in NGF-differentiated PC12 cells caused by anticancer agents. The class given is cell-based, rat. The following applies: oxaliplatin 20 μM, 24 hours, FIG. 8. The method, then:
Rat adrenal gland pheochromocytoma-derived PC12 cells are known to be differentiated into neuron-like cells having neurites by nerve growth factor (NGF) and are widely used as a nerve cell model. To assess the neurite-protective action of PC-SOD, the effect of PC-SOD in neurite disorder caused by various anticancer agents was analyzed by using PC12 cells differentiated by NGF.
PC12 cells were seeded on a 24-well plate coated with collagen at 5 000 cells/well. […] The images of cells were captured by using a microscope (BZ-X800, Keyence Corporation), and the neurite lengths were measured by using an image analysis software ImageJ (NIH).
PC12 cells were seeded on a 24-well plate coated with collagen at 5 000 cells/well. […] After neurite elongation, cells were cultured by using differentiation media each containing carboplatin (with a final concentration of 50 μM) alone or carboplatin and PC-SOD (with final concentrations of 10, 20, 50, and 100 μg/mL) for 24 hours. The images of cells were captured by using a microscope (BZ-X800, Keyence Corporation), and the neurite lengths were measured by using an image analysis software ImageJ (NIH).
PC12 cells were seeded on a 24-well plate coated with collagen at 5 000 cells/well. […] After neurite elongation, cells were cultured by using differentiation media each containing paclitaxel (abbreviated as PTX in the figure of results) alone (with a final concentration of 0.1 μM) or paclitaxel and PC-SOD (with final concentrations of 10, 50, and 100 μg/mL) for 24 hours. The images of cells were captured by using a microscope (BZ-X800, Keyence Corporation), and the neurite lengths were measured by using an image analysis software ImageJ (NIH).

Setting [6] is: anticancer agent alone, 24 hours, FIG. 12-1.
[7] abbreviates: anticancer agent alone, 16 hours, FIG. 13-1.

As to `N.N.O=C([O-])C1(C(=O)[O-])CCC1.[Pt+2]` [carboplatin], the “number of viable RAW cells” value in the data set on RAW cells [1] (setting [6]) is reported as “decreased the number of viable cells dependently on the concentration of the anticancer agent”. In addition, in the data set on RAW cells [2] (setting [7]), the “active oxygen production in mitochondria of RAW cells” value (from here on “active oxygen production”) was “induced active oxygen production dependently on the concentration of the anticancer agent”.
As to `N.N.[Cl][Pt][Cl]` [cisplatin], the “active oxygen production” value in the data set with RAW cells [2] is “induced active oxygen production dependently on the concentration of the anticancer agent”.
For the compound `Nc1ccn([C@@H]2O[C@H](CO)[C@@H](O)C2(F)F)c(=O)n1` [gemcitabine], the “number of viable RAW cells” value in the data set on RAW cells [1] is reported as “decreased the number of viable cells dependently on the concentration of the anticancer agent”. The “active oxygen production” value with RAW cells [2] is listed as “induced active oxygen production dependently on the concentration of the anticancer agent”.
Turning to `O=C1[O][Pt]2([NH][C@@H]3CCCC[C@H]3[NH]2)[O]C1=O` [oxaliplatin], the “number of viable RAW cells” value in the data set on RAW cells [1] (setting [6]) was “decreased the number of viable cells dependently on the concentration of the anticancer agent”. Further, the “active oxygen production” value with RAW cells [2] (setting [7]) was “induced active oxygen production dependently on the concentration of the anticancer agent”. Further, the “proliferation of large intestine cancer cells” value in data set [3] was “Suppression of proliferation of large intestine cancer cells caused by OXA was confirmed”.
On to mangafodipir [reference compound], for which, in data set [4], the “necrosis of liver cells caused by OXA” value is recorded as “the suppressive effect on necrosis of liver cells caused by OXA was not observed”. The figures for the “neurite retraction caused by oxaliplatin” value in data set [5] (test substance 5 μg/mL) and in data set [5] (test substance at concentrations higher than 5 μg/mL (up to 50 μg/mL)) were “a weak suppressing tendency was observed” and “no higher retraction suppressing effect was observed”, respectively.
